From patent US8129547B2, “Anticoagulation of human blood ex vivo” (priority 2006, dated 2012)

Target: T1, Factor Xa (Homo sapiens, UniProt P00742)
T1 construct: purchased Haemochrom Diagnostica GmbH (Essen, D)
Experiment: Determination of Ki values, chromogenic substrate, Dixon evaluation: Factor Xa
Format: biochemical
Details: 25° C., tris buffer pH 8.0, substrate CH3OCO-D-Cha-Gly-Arg-pNA

T1 sequence (P00742 235-488 limits assumed): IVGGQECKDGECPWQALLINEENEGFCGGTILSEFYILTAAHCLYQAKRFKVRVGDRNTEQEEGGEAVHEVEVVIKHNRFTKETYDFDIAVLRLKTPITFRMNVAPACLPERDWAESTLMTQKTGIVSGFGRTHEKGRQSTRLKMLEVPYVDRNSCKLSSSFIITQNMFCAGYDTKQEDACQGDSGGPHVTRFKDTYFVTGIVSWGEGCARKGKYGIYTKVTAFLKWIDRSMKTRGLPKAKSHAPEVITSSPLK
T1 sequence (P00742 41-179 partner limits assumed): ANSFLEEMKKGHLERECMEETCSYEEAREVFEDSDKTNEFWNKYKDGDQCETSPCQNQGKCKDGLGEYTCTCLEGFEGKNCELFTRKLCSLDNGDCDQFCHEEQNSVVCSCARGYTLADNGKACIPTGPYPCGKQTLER

N=C(N)c1ccc(C=C2CCCCC(=Cc3ccc(C(=N)N)cc3)C2=O)cc1 [Pefabloc tPA/Xa, 2,7-bis(4-amidinobenzylidene)-cycloheptanone-(1)]
Ki: 5.1 nM
